Measurements as given in patent publication US6514997B2, “Antipicornaviral compounds and compositions, their pharmaceutical uses, and materials for their synthesis” (Agouron Pharmaceuticals, Inc., priority 1999, dated 2003).
Where two headings read alike, the source gives them in different places.

Columns and labels:
[1] = tested on: strains of human rhinovirus (HRV); assay: Antirhinoviral H1-HeLa cell culture assay (XTT cell protection, EC50), other HRV strains; type: cell-based, human rhinovirus in H1-HeLa cells; conditions: read-out: EC50
Method in brief: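 H1-HeLa cells infected, or mock-infected, were incubated with compounds for two days. Cell protection measured by XTT/PMS formazan absorbance at 450/650 nm; TI taken as CC50 divided by EC50.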

[2] = Cytotoxicity (CC50) in mock-infected H1-HeLa cells, XTT dye reduction; type: cell-based, human; conditions: human, H1-HeLa cells; for CC50: line of CVB2; for CC50 at 1 day: line of CVB3
Method in brief: (§1)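 H1-HeLa cells mock-infected, read by XTT/PMS formazan at 450/650 nm.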

H1-HeLa cells = assay: as above; type: cell-based, human
Method in brief: as §1

[3] = tested on: Coxsackievirus type B3 (CVB3); assay: Anticoxsackieviral cell culture assay (XTT, EC50), CVB3; type: cell-based, coxsackievirus B3 in H1-HeLa cells
Procedure: Anticoxsackieviral Cell Culture Assay:
Coxsackievirus types A-21 (CAV-21) and B3 (CVB3) were purchased from American Type Culture Collection (ATCC, Rockville, Md.). Virus stocks were propagated and antiviral assays were performed in H1-HeLa cells (ATCC). Cells were grown in minimal essential medium with 10% fetal bovine serum (Life Technologies, Gaithersburg, Md.). The ability of the compounds of this invention to protect cells against either CAV-21 or CVB3 infection was measured by the XTT dye reduction method. This method is described in Weislow et al., J. Natl. Cancer Inst. (1989), vol. 81, 577-586. H1-HeLa cells were infected with CAV-21 or CVB3 at a multiplicity of infection (m.o.i.) of 0.025 or 0.075, respectively, or mock-infected with medium only. H1-HeLa cells were plated at 4×10^4 cells per well in a 96-well plate and incubated with appropriate concentrations of the test compound. One day (CVB3) or two days (CAV-21) later, XTT/PMS was added to test plates and the amount of formazan produced was quantified spectrophotometrically at 450/650 nm. […] The therapeutic index (TI) was calculated by dividing the CC50 by the EC50.

coxsackievirus B5 (CVB5) = assay: Anticoxsackieviral cell culture assay (EC50), CVB5; type: cell-based; conditions: Enterovirus B
[4] = Human rhinovirus sp., H1-HeLa, HRV-Hanks
[5] = Human rhinovirus sp., HRV3, H1-HeLa, HRV-3
[6] = Human rhinovirus sp., HRV9, H1-HeLa, HRV-9
[7] = Human rhinovirus sp., HRV11, H1-HeLa, HRV-11
[8] = Human rhinovirus sp., HRV13, H1-HeLa, HRV-13
[9] = Human rhinovirus sp., HRV16, H1-HeLa, HRV-16
[10] = Human rhinovirus sp., HRV19, H1-HeLa, HRV-19
[11] = Human rhinovirus sp., HRV25, H1-HeLa, HRV-25
[12] = Human rhinovirus sp., HRV39, H1-HeLa, HRV-39
[13] = Human rhinovirus sp., HRV78, H1-HeLa, HRV-78
[14] = Human rhinovirus sp., HRV87, H1-HeLa, HRV-87
[15] = uninfected (mock-infected), line of CAV-21
[16] = Human rhinovirus sp., HRV10, H1-HeLa, HRV-10

SMILES | EC50 ([1]; H1-HeLa, HRV-2) | EC50 ([1]; H1-HeLa, HRV-23) | EC50 [1, 5] | EC50 [1, 6] | EC50 [1, 9] | EC50 [1, 11] | EC50 [1, 12] | CC50 at 2 days ([2]; mock-infected, line of HRV-14) | CC50 at 2 days [2, 15] | CC50 ([2]; uninfected (mock-infected)) | CC50 at 1 day ([2]; uninfected (mock-infected)) | CC50 (H1-HeLa cells; line of CVB5) | CC50 (H1-HeLa cells; line of HRV-2) | CC50 (H1-HeLa cells; line of HRV-3) | CC50 (H1-HeLa cells; line of HRV-9) | CC50 (H1-HeLa cells; line of HRV-16) | CC50 (H1-HeLa cells; line of HRV-25) | CC50 (H1-HeLa cells; line of HRV-39) | EC50 [3] | EC50 (coxsackievirus B5 (CVB5)) | also measured
CCOC(=O)/C=C/[C@H](C[C@@H]1CCNC1=O)NC(=O)[C@H](Cc1ccc(F)c(F)c1)n1cccc(NC(=O)c2cc(C)on2)c1=O [Compound 33, trans-(2′S,3′″″S,4S)-4-(3′-(3″,4″-Difluorophenyl)-2′-{3′″-[(5″″-methylisoxazole-3″″-carbonyl)amino]-2′″-oxo-2′″H-pyridin-1′″-yl}propionylamino)-5-(2′″″-oxopyrrolidin-3′″″-yl)pent-2-enoic Acid Ethyl Ester] | 3 nM | 3 nM | 3 nM | 15 nM | 6 nM | 28 nM | 4 nM | > 10000 nM | > 10000 nM | > 10000 nM | > 10000 nM | > 10000 nM | > 10000 nM | > 10000 nM | > 10000 nM | > 10000 nM | > 10000 nM | > 10000 nM | 3 nM | 25 nM | EC50 [1, 4]: 5 nM; EC50 [1, 7]: 3 nM; EC50 [1, 8]: 14 nM; EC50 [1, 10]: 4 nM; EC50 [1, 13]: 5 nM; EC50 [1, 14]: 5 nM; CC50 (H1-HeLa cells; line of HRV-11): > 10000 nM; CC50 (H1-HeLa cells; line of HRV-13): > 10000 nM; CC50 (H1-HeLa cells; line of HRV-19): > 10000 nM; CC50 (H1-HeLa cells; line of HRV-23): > 10000 nM; CC50 (H1-HeLa cells; line of HRV-78): > 10000 nM; CC50 (H1-HeLa cells; line of HRV-87): > 10000 nM; CC50 (H1-HeLa cells; line of HRV-Hanks): > 10000 nM
C#CC[C@@H](C(=O)N[C@H](/C=C/C(=O)OC(C)(C)C)C[C@@H]1CCNC1=O)n1cccc(NC(=O)c2cc(C)on2)c1=O [Compound 41, trans-(2′S,3′″″S,4S)-4-[2′-(3″-{[1′″-(5″″-Methylisoxazol-3″″-yl)methanoyl]amino}-2′″-oxo-2′″H-pyridin-1′″-yl)pent-4″-ynoylamino]-5-(2′″″-oxopyrrolidin-3′″″-yl)pent-2-enoic Acid tert-Butyl Ester] | 155 nM | – | 54 nM | 562 nM | 416 nM | 829 nM | 445 nM | > 10000 nM | > 10000 nM | > 10000 nM | > 10000 nM | > 10000 nM | > 10000 nM | > 10000 nM | > 10000 nM | > 10000 nM | > 10000 nM | > 10000 nM | 117 nM | 199 nM | EC50 [1, 14]: 60 nM; CC50 (H1-HeLa cells; line of HRV-87): > 10000 nM
Cc1cc(C(=O)Nc2cccn([C@@H](Cc3ccc(F)c(F)c3)C(=O)N[C@H](/C=C/C(=O)OC(C)C)C[C@@H]3CCNC3=O)c2=O)no1 [Compound 48, trans-(2′S,3″″″S,4S)-4-[3′-(3″,4″-Difluorophenyl)-2′-(3′″-{[1″″-(5′″″-methylisoxazol-3′″″-yl)methanoyl]amino}-2″″-oxo-2″″H-pyridin-1″″-yl)propanoylamino]-5-(2″″″-oxopyrrolidin-3″″″-yl)pent-2-enoic Acid Isopropyl Ester] | 48 nM | 10 nM | 33 nM | 109 nM | 36 nM | 100 nM | 44 nM | > 10000 nM | > 10000 nM | > 10000 nM | > 10000 nM | > 10000 nM | > 10000 nM | > 10000 nM | > 10000 nM | > 10000 nM | > 10000 nM | > 10000 nM | 187 nM | 178 nM | EC50 ([1]; H1-HeLa, HRV-1A): 132 nM; EC50 [1, 4]: 3 nM; EC50 [1, 16]: 85 nM; EC50 [1, 7]: 3 nM; EC50 [1, 8]: 44 nM; EC50 [1, 10]: 9 nM; EC50 [1, 13]: 12 nM; CC50 (H1-HeLa cells; line of HRV-1A): > 10000 nM; CC50 (H1-HeLa cells; line of HRV-10): > 10000 nM; CC50 (H1-HeLa cells; line of HRV-11): > 10000 nM; CC50 (H1-HeLa cells; line of HRV-13): > 10000 nM; CC50 (H1-HeLa cells; line of HRV-19): > 10000 nM; CC50 (H1-HeLa cells; line of HRV-23): > 10000 nM; CC50 (H1-HeLa cells; line of HRV-78): > 10000 nM; CC50 (H1-HeLa cells; line of HRV-Hanks): > 10000 nM
C#CC[C@@H](C(=O)N[C@H](/C=C/C(=O)OC1CCC1)C[C@@H]1CCNC1=O)n1cccc(NC(=O)c2cc(C)on2)c1=O [Compound 53, trans-(2′S,3′″″S,4S)-4-[2′-(3″-{[1′″-(5″″-Methylisoxazol-3″″-yl)methanoyl]amino}-2′″-oxo-2′″H-pyridin-1′″-yl)pent-4″-ynoylamino]-5-(2′″″-oxopyrrolidin-3′″″-yl)pent-2-enoic Acid Cyclobutyl Ester] | 78 nM | 45 nM | 44 nM | 133 nM | 102 nM | 66 nM | 125 nM | > 10000 nM | > 10000 nM | > 10000 nM | > 10000 nM | > 10000 nM | > 10000 nM | > 10000 nM | > 10000 nM | > 10000 nM | > 10000 nM | > 10000 nM | 156 nM | 157 nM | EC50 ([1]; H1-HeLa, HRV-1A): 128 nM; EC50 [1, 4]: 137 nM; EC50 [1, 16]: 37 nM; EC50 [1, 7]: 20 nM; EC50 [1, 8]: 157 nM; EC50 [1, 10]: 53 nM; EC50 [1, 13]: 40 nM; CC50 (H1-HeLa cells; line of HRV-1A): > 10000 nM; CC50 (H1-HeLa cells; line of HRV-10): > 10000 nM; CC50 (H1-HeLa cells; line of HRV-11): > 10000 nM; CC50 (H1-HeLa cells; line of HRV-13): > 10000 nM; CC50 (H1-HeLa cells; line of HRV-19): > 10000 nM; CC50 (H1-HeLa cells; line of HRV-23): > 10000 nM; CC50 (H1-HeLa cells; line of HRV-78): > 10000 nM; CC50 (H1-HeLa cells; line of HRV-Hanks): > 10000 nM
